± gives the expanded uncertainty stated by the source.
Assays:
[1] = excess molar enthalpy (molar enthalpy of mixing); xn = mol fraction of the nth substance listed; details: 100 kPa, Liquid, Calvet calorimetry
[2] = xn = mol fraction of the nth substance listed; details: 100 kPa, Liquid, Vibrating tube method

CCCC[N+](C)(C)C.O=S(=O)([N-]S(=O)(=O)C(F)(F)F)C(F)(F)F [butyltrimethylammonium bis(trifluoromethylsulfonyl)imide] + CN(C)C=O
Details	excess molar enthalpy [kcal/mol]	mass density [kg/m3]
[1], 308.15 K, x2 = 0.1285	-0.0987 ± 0.00406	–
[1], 308.15 K, x2 = 0.2488	-0.167 ± 0.00693	–
[1], 308.15 K, x2 = 0.2496	-0.168 ± 0.00693	–
[1], 308.15 K, x2 = 0.2543	-0.168 ± 0.00693	–
[1], 308.15 K, x2 = 0.3983	-0.232 ± 0.00956	–
[1], 308.15 K, x2 = 0.5182	-0.272 ± 0.011	–
[1], 308.15 K, x2 = 0.5211	-0.272 ± 0.011	–
[1], 308.15 K, x2 = 0.6283	-0.284 ± 0.0115	–
[1], 308.15 K, x2 = 0.7679	-0.253 ± 0.0103	–
[1], 308.15 K, x2 = 0.889	-0.162 ± 0.00669	–
[1], 313.15 K, x2 = 0.1226	-0.0961 ± 0.00382	–
[1], 313.15 K, x2 = 0.2487	-0.167 ± 0.00693	–
[1], 313.15 K, x2 = 0.261	-0.174 ± 0.00717	–
[1], 313.15 K, x2 = 0.3939	-0.232 ± 0.00932	–
[1], 313.15 K, x2 = 0.5209	-0.273 ± 0.0112	–
[1], 313.15 K, x2 = 0.5249	-0.275 ± 0.0112	–
[1], 313.15 K, x2 = 0.625	-0.286 ± 0.0117	–
[1], 313.15 K, x2 = 0.7717	-0.247 ± 0.01	–
[1], 313.15 K, x2 = 0.8796	-0.174 ± 0.00717	–
[1], 323.15 K, x2 = 0.129	-0.102 ± 0.00406	–
[1], 323.15 K, x2 = 0.2459	-0.169 ± 0.00693	–
[1], 323.15 K, x2 = 0.2473	-0.169 ± 0.00693	–
[1], 323.15 K, x2 = 0.3807	-0.229 ± 0.00932	–
[1], 323.15 K, x2 = 0.5174	-0.278 ± 0.0112	–
[1], 323.15 K, x2 = 0.5224	-0.279 ± 0.0115	–
[1], 323.15 K, x2 = 0.6286	-0.291 ± 0.012	–
[1], 323.15 K, x2 = 0.7693	-0.26 ± 0.0105	–
[1], 323.15 K, x2 = 0.8804	-0.176 ± 0.00717	–
[2], 293.15 K, x2 = 0	–	1397.1 ± 4.2
[2], 293.15 K, x2 = 0.1268	–	1379.7 ± 4.2
[2], 293.15 K, x2 = 0.2011	–	1367.7 ± 4.1
[2], 293.15 K, x2 = 0.3028	–	1348.7 ± 4.1
[2], 293.15 K, x2 = 0.3824	–	1331.3 ± 4
[2], 293.15 K, x2 = 0.5078	–	1297.4 ± 3.9
[2], 293.15 K, x2 = 0.6249	–	1255.8 ± 3.8
[2], 293.15 K, x2 = 0.7548	–	1191.6 ± 3.6
[2], 293.15 K, x2 = 0.8764	–	1101.3 ± 3.3
[2], 293.15 K, x2 = 0.9157	–	1061.9 ± 3.2
[2], 295.15 K, x2 = 0	–	1395.3 ± 4.2
[2], 295.15 K, x2 = 0.1268	–	1377.9 ± 4.2
[2], 295.15 K, x2 = 0.2011	–	1365.9 ± 4.1
[2], 295.15 K, x2 = 0.3028	–	1346.9 ± 4.1
[2], 295.15 K, x2 = 0.3824	–	1329.5 ± 4
[2], 295.15 K, x2 = 0.5078	–	1295.6 ± 3.9
[2], 295.15 K, x2 = 0.6249	–	1253.9 ± 3.8
[2], 295.15 K, x2 = 0.7548	–	1189.7 ± 3.6
[2], 295.15 K, x2 = 0.8764	–	1099.4 ± 3.3
[2], 295.15 K, x2 = 0.9157	–	1060 ± 3.2
[2], 298.15 K, x2 = 0	–	1392.7 ± 4.2
[2], 298.15 K, x2 = 0.1268	–	1375.3 ± 4.2
[2], 298.15 K, x2 = 0.2011	–	1363.2 ± 4.1
[2], 298.15 K, x2 = 0.3028	–	1344.2 ± 4
[2], 298.15 K, x2 = 0.3824	–	1326.8 ± 4
[2], 298.15 K, x2 = 0.5078	–	1292.8 ± 3.9
[2], 298.15 K, x2 = 0.6249	–	1251.2 ± 3.8
[2], 298.15 K, x2 = 0.7548	–	1186.8 ± 3.6
[2], 298.15 K, x2 = 0.8764	–	1096.5 ± 3.3
[2], 298.15 K, x2 = 0.9157	–	1057.1 ± 3.2
[2], 303.15 K, x2 = 0	–	1388.3 ± 4.2
[2], 303.15 K, x2 = 0.1268	–	1370.8 ± 4.1
[2], 303.15 K, x2 = 0.2011	–	1358.8 ± 4.1
[2], 303.15 K, x2 = 0.3028	–	1339.7 ± 4
[2], 303.15 K, x2 = 0.3824	–	1322.2 ± 4
[2], 303.15 K, x2 = 0.5078	–	1288.2 ± 3.9
[2], 303.15 K, x2 = 0.6249	–	1246.5 ± 3.7
[2], 303.15 K, x2 = 0.7548	–	1182.1 ± 3.6
[2], 303.15 K, x2 = 0.8764	–	1091.8 ± 3.3
[2], 303.15 K, x2 = 0.9157	–	1052.4 ± 3.2
[2], 308.15 K, x2 = 0	–	1384 ± 4.2
[2], 308.15 K, x2 = 0.1268	–	1366.4 ± 4.1
[2], 308.15 K, x2 = 0.2011	–	1354.3 ± 4.1
[2], 308.15 K, x2 = 0.3028	–	1335.2 ± 4
[2], 308.15 K, x2 = 0.3824	–	1317.7 ± 4
[2], 308.15 K, x2 = 0.5078	–	1283.6 ± 3.9
[2], 308.15 K, x2 = 0.6249	–	1241.8 ± 3.7
[2], 308.15 K, x2 = 0.7548	–	1177.4 ± 3.5
[2], 308.15 K, x2 = 0.8764	–	1087 ± 3.3
[2], 308.15 K, x2 = 0.9157	–	1047.6 ± 3.1
[2], 313.15 K, x2 = 0	–	1379.6 ± 4.2
[2], 313.15 K, x2 = 0.1268	–	1362 ± 4.1
[2], 313.15 K, x2 = 0.2011	–	1349.9 ± 4.1
[2], 313.15 K, x2 = 0.3028	–	1330.7 ± 4
[2], 313.15 K, x2 = 0.3824	–	1313.1 ± 4
[2], 313.15 K, x2 = 0.5078	–	1279 ± 3.8
[2], 313.15 K, x2 = 0.6249	–	1237.2 ± 3.7
[2], 313.15 K, x2 = 0.7548	–	1172.7 ± 3.5
[2], 313.15 K, x2 = 0.8764	–	1082.3 ± 3.3
[2], 313.15 K, x2 = 0.9157	–	1042.8 ± 3.1
[2], 318.15 K, x2 = 0	–	1375.2 ± 4.2
[2], 318.15 K, x2 = 0.1268	–	1357.6 ± 4.1
[2], 318.15 K, x2 = 0.2011	–	1345.4 ± 4.1
[2], 318.15 K, x2 = 0.3028	–	1326.2 ± 4
[2], 318.15 K, x2 = 0.3824	–	1308.6 ± 3.9
[2], 318.15 K, x2 = 0.5078	–	1274.5 ± 3.8
[2], 318.15 K, x2 = 0.6249	–	1232.6 ± 3.7
[2], 318.15 K, x2 = 0.7548	–	1168 ± 3.5
[2], 318.15 K, x2 = 0.8764	–	1077.5 ± 3.2
[2], 318.15 K, x2 = 0.9157	–	1038.1 ± 3.1
[2], 323.15 K, x2 = 0	–	1370.9 ± 4.1
[2], 323.15 K, x2 = 0.1268	–	1353.2 ± 4.1
[2], 323.15 K, x2 = 0.2011	–	1341 ± 4
[2], 323.15 K, x2 = 0.3028	–	1321.8 ± 4
[2], 323.15 K, x2 = 0.3824	–	1304.1 ± 3.9
[2], 323.15 K, x2 = 0.5078	–	1269.9 ± 3.8
[2], 323.15 K, x2 = 0.6249	–	1227.9 ± 3.7
[2], 323.15 K, x2 = 0.7548	–	1163.3 ± 3.5
[2], 323.15 K, x2 = 0.8764	–	1072.8 ± 3.2
[2], 323.15 K, x2 = 0.9157	–	1033.3 ± 3.1
[2], 328.15 K, x2 = 0	–	1366.6 ± 4.1
[2], 328.15 K, x2 = 0.1268	–	1348.8 ± 4.1
[2], 328.15 K, x2 = 0.2011	–	1336.6 ± 4
[2], 328.15 K, x2 = 0.3028	–	1317.3 ± 4
[2], 328.15 K, x2 = 0.3824	–	1299.7 ± 3.9
[2], 328.15 K, x2 = 0.5078	–	1265.4 ± 3.8
[2], 328.15 K, x2 = 0.6249	–	1223.3 ± 3.7
[2], 328.15 K, x2 = 0.7548	–	1158.6 ± 3.5
[2], 328.15 K, x2 = 0.8764	–	1068 ± 3.2
[2], 328.15 K, x2 = 0.9157	–	1028.6 ± 3.1
[2], 333.15 K, x2 = 0	–	1362.3 ± 4.1
[2], 333.15 K, x2 = 0.1268	–	1344.5 ± 4.1
[2], 333.15 K, x2 = 0.2011	–	1332.3 ± 4
[2], 333.15 K, x2 = 0.3028	–	1312.9 ± 4
[2], 333.15 K, x2 = 0.3824	–	1295.2 ± 3.9
[2], 333.15 K, x2 = 0.5078	–	1260.8 ± 3.8
[2], 333.15 K, x2 = 0.6249	–	1218.7 ± 3.7
[2], 333.15 K, x2 = 0.7548	–	1153.9 ± 3.5
[2], 333.15 K, x2 = 0.8764	–	1063.3 ± 3.2
[2], 333.15 K, x2 = 0.9157	–	1023.8 ± 3.1
